Laboratory results from the NIST ThermoML archive (doi:10.1016/j.jct.2013.09.008).

Experiment: mn = molality of the nth substance listed, in mol/kg
Conditions: 101.33 kPa, Liquid; for speed of sound: Frequency=3 MHz, Linear variable-path acoustic interferometer; for mass density: Pycnometric method; for viscosity: Capillary tube (Ostwald / Ubbelohde) method

N[C@@H](Cc1ccccc1)C(=O)O [L-phenylalanine] + O
Conditions	mass density [kg/m3]	speed of sound [m/s]	viscosity [mPa·s]
293.15 K, m1 = 0.0249	999.4	1488.8	–
293.15 K, m1 = 0.0498	1000.55	1493	–
293.15 K, m1 = 0.0749	1001.71	1496.2	–
293.15 K, m1 = 0.0999	1002.88	1498.3	–
293.15 K, m1 = 0.125	1004.04	1499.4	–
293.15 K, m1 = 0.1499	1005.2	1499.4	–
298.15 K, m1 = 0.0249	998.23	1501.9	0.9038
298.15 K, m1 = 0.0498	999.39	1505.9	0.9168
298.15 K, m1 = 0.0749	1000.55	1509	0.9299
298.15 K, m1 = 0.0999	1001.72	1511	0.9431
298.15 K, m1 = 0.125	1002.88	1512	0.9561
298.15 K, m1 = 0.1499	1004.05	1511.9	0.9691
303.15 K, m1 = 0.0249	996.84	1513.1	0.8083
303.15 K, m1 = 0.0498	998	1516.8	0.819
303.15 K, m1 = 0.0749	999.17	1519.5	0.8294
303.15 K, m1 = 0.0999	1000.34	1521.2	0.8399
303.15 K, m1 = 0.125	1001.51	1521.8	0.8505
303.15 K, m1 = 0.1499	1002.68	1521.3	0.8605
308.15 K, m1 = 0.0249	995.24	1524.1	0.7285
308.15 K, m1 = 0.0498	996.4	1527.4	0.7372
308.15 K, m1 = 0.0749	997.58	1529.8	0.7462
308.15 K, m1 = 0.0999	998.75	1531.1	0.7545
308.15 K, m1 = 0.125	999.92	1531.4	0.7635
308.15 K, m1 = 0.1499	1001.09	1530.6	0.7722
313.15 K, m1 = 0.0249	993.43	1530.8	0.6607
313.15 K, m1 = 0.0498	994.6	1533.8	0.668
313.15 K, m1 = 0.0749	995.78	1535.8	0.6749
313.15 K, m1 = 0.0999	996.96	1536.8	0.682
313.15 K, m1 = 0.125	998.14	1536.7	0.6897
313.15 K, m1 = 0.1499	999.32	1535.7	0.6968
318.15 K, m1 = 0.0249	991.43	1536.5	0.604
318.15 K, m1 = 0.0498	992.61	1539.1	0.6102
318.15 K, m1 = 0.0749	993.8	1540.8	0.616
318.15 K, m1 = 0.0999	994.98	1541.5	0.622
318.15 K, m1 = 0.125	996.17	1541.3	0.6285
318.15 K, m1 = 0.1499	997.36	1540	0.6346
